This is an account of results in ChEMBL document CHEMBL2007661, “Compounds: GSK PKIS; Assays: UNC Frye lab” (2012).

Holding throughout (conditions): at 1 µM
The target of assay [1] is T1, Inhibitor of nuclear factor kappa-B kinase subunit alpha (Homo sapiens) (UniProt O15111).
T1 sequence (whole entry): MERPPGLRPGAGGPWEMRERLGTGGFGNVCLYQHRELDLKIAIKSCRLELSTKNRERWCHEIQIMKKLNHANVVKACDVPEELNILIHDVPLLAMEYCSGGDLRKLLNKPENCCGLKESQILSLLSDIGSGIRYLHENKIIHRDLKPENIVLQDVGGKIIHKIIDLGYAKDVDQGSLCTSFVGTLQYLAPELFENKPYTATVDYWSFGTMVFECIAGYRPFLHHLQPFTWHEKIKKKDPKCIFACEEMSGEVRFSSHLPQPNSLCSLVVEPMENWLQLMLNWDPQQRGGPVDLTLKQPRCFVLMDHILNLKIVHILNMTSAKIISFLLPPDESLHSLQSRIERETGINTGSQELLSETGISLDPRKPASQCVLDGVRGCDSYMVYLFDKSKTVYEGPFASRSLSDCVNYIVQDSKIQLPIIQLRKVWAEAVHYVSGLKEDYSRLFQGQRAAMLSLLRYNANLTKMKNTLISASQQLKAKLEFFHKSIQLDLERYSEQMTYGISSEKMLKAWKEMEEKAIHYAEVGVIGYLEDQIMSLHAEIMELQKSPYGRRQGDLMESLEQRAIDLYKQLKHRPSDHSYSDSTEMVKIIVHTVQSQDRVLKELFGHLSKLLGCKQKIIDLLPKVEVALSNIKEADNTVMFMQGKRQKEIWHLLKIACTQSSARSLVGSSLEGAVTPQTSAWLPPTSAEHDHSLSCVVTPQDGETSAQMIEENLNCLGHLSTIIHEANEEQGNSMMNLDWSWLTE

The target of assay [2] is T2, Inhibitor of nuclear factor kappa-B kinase subunit epsilon (Homo sapiens) (UniProt Q14164).
T2 sequence (whole entry): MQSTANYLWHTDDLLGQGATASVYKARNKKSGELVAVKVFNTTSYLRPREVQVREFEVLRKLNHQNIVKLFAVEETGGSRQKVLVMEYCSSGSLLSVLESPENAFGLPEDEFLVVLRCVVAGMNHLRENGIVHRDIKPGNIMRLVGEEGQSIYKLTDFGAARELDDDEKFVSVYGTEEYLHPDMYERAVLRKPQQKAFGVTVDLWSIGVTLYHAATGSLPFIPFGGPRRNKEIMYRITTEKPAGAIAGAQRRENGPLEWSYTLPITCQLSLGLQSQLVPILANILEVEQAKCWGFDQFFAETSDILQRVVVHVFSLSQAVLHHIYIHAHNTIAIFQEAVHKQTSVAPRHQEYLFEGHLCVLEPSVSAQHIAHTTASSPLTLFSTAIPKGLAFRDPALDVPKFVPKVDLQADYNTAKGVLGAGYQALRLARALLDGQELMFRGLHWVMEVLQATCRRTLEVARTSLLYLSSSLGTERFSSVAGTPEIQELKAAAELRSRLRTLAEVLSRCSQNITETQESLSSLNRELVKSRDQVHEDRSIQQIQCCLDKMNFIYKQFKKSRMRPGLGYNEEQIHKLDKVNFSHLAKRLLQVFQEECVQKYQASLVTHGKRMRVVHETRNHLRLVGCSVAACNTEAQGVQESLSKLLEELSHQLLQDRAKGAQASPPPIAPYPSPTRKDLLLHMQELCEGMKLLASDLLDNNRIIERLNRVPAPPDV

The target in assay [3] is T3, Serine/threonine-protein kinase TBK1 (Homo sapiens) (UniProt Q9UHD2).
T3 sequence (whole entry): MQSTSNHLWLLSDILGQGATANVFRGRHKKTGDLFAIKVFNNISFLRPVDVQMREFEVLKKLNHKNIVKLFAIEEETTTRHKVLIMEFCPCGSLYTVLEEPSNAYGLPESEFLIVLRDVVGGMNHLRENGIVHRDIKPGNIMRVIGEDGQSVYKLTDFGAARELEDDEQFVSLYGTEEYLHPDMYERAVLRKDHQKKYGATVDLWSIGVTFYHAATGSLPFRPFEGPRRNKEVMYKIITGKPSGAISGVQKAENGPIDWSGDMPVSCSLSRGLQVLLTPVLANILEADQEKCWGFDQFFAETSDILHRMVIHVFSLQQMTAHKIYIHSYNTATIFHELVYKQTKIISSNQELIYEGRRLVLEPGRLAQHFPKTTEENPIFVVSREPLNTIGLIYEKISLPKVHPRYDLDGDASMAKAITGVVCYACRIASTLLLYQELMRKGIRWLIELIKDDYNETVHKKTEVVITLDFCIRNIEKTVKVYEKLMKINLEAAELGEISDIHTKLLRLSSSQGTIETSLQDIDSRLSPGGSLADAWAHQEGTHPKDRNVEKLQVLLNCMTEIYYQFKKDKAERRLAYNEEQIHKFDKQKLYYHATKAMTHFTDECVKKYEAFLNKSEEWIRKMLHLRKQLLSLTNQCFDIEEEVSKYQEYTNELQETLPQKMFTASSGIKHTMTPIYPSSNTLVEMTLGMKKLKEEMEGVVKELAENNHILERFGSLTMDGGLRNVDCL

The target in assay [4] is T4, Inhibitor of nuclear factor kappa-B kinase subunit beta (Homo sapiens) (UniProt O14920).
T4 sequence (whole entry): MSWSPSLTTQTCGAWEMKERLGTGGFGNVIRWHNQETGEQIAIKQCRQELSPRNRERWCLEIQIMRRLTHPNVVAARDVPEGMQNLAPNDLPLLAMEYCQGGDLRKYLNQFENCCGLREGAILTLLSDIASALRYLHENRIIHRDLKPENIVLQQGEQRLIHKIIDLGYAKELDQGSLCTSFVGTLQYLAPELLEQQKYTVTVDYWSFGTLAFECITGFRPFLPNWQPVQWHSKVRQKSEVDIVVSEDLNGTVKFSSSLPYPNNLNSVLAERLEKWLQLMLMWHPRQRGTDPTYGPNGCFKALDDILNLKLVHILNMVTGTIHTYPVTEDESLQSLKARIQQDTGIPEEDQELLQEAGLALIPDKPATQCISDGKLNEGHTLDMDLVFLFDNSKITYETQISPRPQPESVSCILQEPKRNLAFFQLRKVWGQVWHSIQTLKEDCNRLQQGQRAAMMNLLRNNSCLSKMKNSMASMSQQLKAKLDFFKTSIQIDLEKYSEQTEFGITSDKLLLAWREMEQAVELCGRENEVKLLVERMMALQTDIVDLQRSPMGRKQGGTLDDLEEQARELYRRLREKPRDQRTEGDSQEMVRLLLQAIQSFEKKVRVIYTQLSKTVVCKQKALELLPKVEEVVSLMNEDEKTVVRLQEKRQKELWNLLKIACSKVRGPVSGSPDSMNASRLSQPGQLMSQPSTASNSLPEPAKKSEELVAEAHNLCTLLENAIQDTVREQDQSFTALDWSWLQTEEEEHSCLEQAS

As usually defined, the inhibition is the change of the read-out against control, counted positive when it falls.

Where “and” joins values, the source holds several entries; their conditions need not be identical. Equal values may be shown once.

`Cc1ccc(O)cc1Nc1ccnc2ccc(S(C)(=O)=O)cc12`: the inhibition in assay [1] was 5%; in assay [2], 0% and 2%; in assay [3], 1% and -2%; in assay [4], -6% and -8%.
Regarding `O=C(Nc1n[nH]c2cc(-c3ccc(F)cc3)ccc12)C1CC1`, the inhibition is 2% and 12% in assay [1]; 2% and -1% in assay [2]; 2% and 4% in assay [3]; -8% and -2% in assay [4].
As for `O=C(Nc1n[nH]c2cc(-c3ccccc3)ccc12)C1CC1`, the inhibition in assay [1] was 9% and -2%; in assay [2] it was -1%; in assay [3] it was 2% and 0%; in assay [4], -2% and -6%.
On to `CNC(=O)c1cncc(/C=C/c2ccccc2Cl)c1`, for which the inhibition in assay [1] is 3% and 1%; in assay [2] it was 0%; in assay [3], 2% and 1%; in assay [4], -5%.
`COc1ccc(-c2cc(-c3c[nH]nc3-c3ccccn3)ccn2)cc1`: the inhibition in assay [1] is 6%; in assay [2], -2% and -1%; in assay [3] it was -4% and -2%; in assay [4] it was -7% and -8%.
As to `FC(F)(F)CNc1nccc(-c2cnn3ncccc23)n1`, the inhibition in assay [1] is 2% and 7%; in assay [2], -2% and -1%; in assay [3], -2% and -4%; in assay [4], -5% and 2%.
For `Fc1ccc(-c2ncn(CCCN3CCOCC3)c2-c2ccncc2)cc1`, the inhibition in assay [1] is 0% and 1%; in assay [2], 0%; in assay [3], -1%; in assay [4] it was 0% and -5%.
In the case of `CN(c1ccc(NC(=O)Nc2ccc(OC(F)(F)F)cc2)cc1)c1ccnc(Nc2cccc(S(N)(=O)=O)c2)n1`, the inhibition in assay [1] is 2% and 3%; in assay [2] it was 17% and 18%; in assay [3], 18%; in assay [4], -5% and -4%.
Take `[O-][S+]1CCN(Cc2ccc(-c3ccc4ncnc(Nc5ccc(OCc6cccc(F)c6)c(Cl)c5)c4c3)o2)CC1`: the inhibition in assay [1] is 16% and 1%; in assay [2], 1% and 2%; in assay [3], 7% and 0%; in assay [4], 2% and 3%.
For `CN(c1ccc(NC(=O)Nc2c(Cl)cccc2Cl)cc1)c1ccnc(Nc2cccc(CS(C)(=O)=O)c2)n1`, the inhibition was 0% and 6% in assay [1]; 13% in assay [2]; 19% and 17% in assay [3]; -3% and -5% in assay [4].
`Cc1cc(-c2ccco2)cc(C)c1/C=C/c1cncc(-c2nn[nH]n2)c1`: the inhibition is -4% and -2% in assay [1]; 9% and 11% in assay [2]; 5% and 3% in assay [3]; -1% and -3% in assay [4].
With `COc1ccc(COc2ccc(Cc3cnc(N)nc3N)cc2OC)cc1`, the inhibition in assay [1] is 2%; in assay [2] it was -4% and -2%; in assay [3], -3% and -2%; in assay [4], -2% and -5%.
Turning to `c1ccc(Oc2ccc(Nc3ncc(-c4ccccc4)o3)cc2)cc1`, the inhibition in assay [1] was 1% and 2%; in assay [2] it was -2% and -1%; in assay [3] it was -5% and -4%; in assay [4], -5% and -2%.
On to `Cc1cccc(Nc2ncc(-c3ccccc3)o2)c1`, for which the inhibition was -1% and -2% in assay [1]; 0% and 1% in assay [2]; 1% and 4% in assay [3]; 2% and 1% in assay [4].
In the case of `CS(=O)(=O)CCNCc1ccoc1-c1ccc2ncnc(Nc3ccc(OCc4ccccc4)cc3)c2c1`, the inhibition in assay [1] was -2%; in assay [2] it was 3%; in assay [3], 5% and 2%; in assay [4], 5% and 4%.
Turning to `Cc1ccc(C(=O)NC2CCCCC2)cc1-c1ccc(C(=O)NCC2CC2)cc1`, the inhibition in assay [1] was 9% and 7%; in assay [2], 0% and -1%; in assay [3], -2% and -3%; in assay [4], 5% and 0%.
Regarding `O=C(Nc1n[nH]c2nc(-c3ccco3)c(Br)cc12)C1CC1`, the inhibition in assay [1] was 85%; in assay [2], 0%; in assay [3] it was 18% and 25%; in assay [4] it was -5% and -1%.
For the molecule `CNC(=O)c1cc(-c2ccc(F)cc2)cc(-c2ccc(S(=O)(=O)N3CCCC3)cc2)c1N`, the inhibition in assay [1] is -3% and -6%; in assay [2] it was 0% and -1%; in assay [3], 4% and 2%; in assay [4], 3% and 4%.
As to `CCC(=O)Nc1ccc(C)c(-c2ccc(C(=O)NCC3CC3)cc2)c1`, the inhibition in assay [1] is -2%; in assay [2], -2% and 0%; in assay [3], 1% and -2%; in assay [4], -4%.
As for `NS(=O)(=O)c1ccc(-c2ccc3c(NC(=O)C4CC4)n[nH]c3c2)cc1`, the inhibition in assay [1] is -1% and 2%; in assay [2] it was 1% and -2%; in assay [3], -3% and 0%; in assay [4] it was -7% and -3%.
Consider `Cn1cc(C=C2C(=O)Nc3cccnc32)c2ccccc21`, for which the inhibition is 15% in assay [1]; 7% and 10% in assay [2]; 17% and 18% in assay [3]; -5% and 0% in assay [4].
As for `Fc1ccc(Nc2nccc(-c3c(-c4ccc(C(F)(F)F)cc4)nn4ncccc34)n2)cc1F`, the inhibition is 19% and 13% in assay [1]; -3% and -2% in assay [2]; -5% in assay [3]; 1% and -2% in assay [4].
With `COc1ccc2cc(-c3c(-c4ccncc4)nc(-c4ccc([S+](C)[O-])cc4)n3C)ccc2c1` (stereo unspecified), the inhibition in assay [1] was 4% and 3%; in assay [2], -1% and 2%; in assay [3], -3% and 0%; in assay [4], 2% and 3%.
As to `c1ccc(Cc2nc3ccc(Nc4ncnc5ccccc45)cc3[nH]2)cc1`, the inhibition in assay [1] is -3% and 1%; in assay [2], -3% and -2%; in assay [3], -5% and -7%; in assay [4], -5% and -6%.
